What was measured:
[1] = system: CYP71A10-transformed tobacco; assay: Herbicide tolerance, seeds germinated on herbicide medium, CYP71A10-transformed tobacco; type: in vivo, Nicotiana tabacum cv SR1; conditions: for tolerance of line 25/2 to the herbicide: compared with control plants, data not shown
Procedure: (§1) T1 generation seeds from CYP71A10-transformed tobacco and pBI121-transformed control plants were placed onto Petri dishes containing MS salts and linuron (using its commercial formulation LOROX 50 DF) at active ingredient concentrations ranging from 0.25 to 3.0 μM. Chlortoluron was added at 0, 1.0, 5.0 and 10.0 μM concentrations using a 99.5% pure analytical standard. The Petri dishes were incubated in a growth chamber maintaining a constant temperature of 27° C. and a 16/8 hour light/dark cycle. The phytotoxic effects of the treatments were determined visually by comparison to control plants and plants grown in the absence of the herbicide. All treatments were repeated at least twice.

[2] = system: excised leaves of control tobacco plants transformed with pBI121; assay: In vivo herbicide metabolism assay, excised leaves of control tobacco; set-up: species or system Nicotiana tabacum cv SR1; conditions: for % of herbicide metabolized, Control: after 14 hours, 1.2 nmol herbicide, standard error in parentheses, three pBI121 control plants; for share of the chlortoluron metabolites produced in control leaves: 14 hours, TLC
Procedure: (§2) Seeds from primary transgenic tobacco plants transformed with CYP71A10 and control plants transformed with the pBI121 vector were grown in Petri dishes containing MS salts and 100 μg/ml kanamycin. At five weeks post-seeding, kanamycin-resistant plantlets were transplanted into pots containing soil and grown an additional two weeks. Single leaves of approximately 10 cm^2 in size were excised and their petioles inserted into 100 μl of H2 O containing radiolabeled herbicide. The leaves were placed in a growth chamber maintaining a temperature of 27° C. and incubated until the entire volume of the herbicide solution was drawn up by the transpirational stream of the leaves (about 3 hrs). The leaves were subsequently transferred into an Eppendorf tube containing distilled water and further incubated for a total of 14 hours.
(§3) [^14 C]-labeled herbicide was extracted from the leaves by grinding for 5 minutes in 250 μl methanol with a plastic pellet pestle driven by an electric drill. After centrifugation for 3 minutes at 14,000 g, 75μl of the supernatant was spotted on a Whatman K6F silica plate and developed in a solvent system containing chloroforn/ethanol/acetic acid 135:10:15 (v/v/v). The separated herbicide derivatives were visualized using an imaging scanner. Substrate conversion was quantified based on the amount of herbicide absorbed, and the ratios of the parent compound and the produced metabolites determined from the TLC profiles.

[3] = system: excised leaves of transgenic tobacco plant 25/2 progeny (CYP71A10-transformed); assay: In vivo herbicide metabolism assay, excised leaves of CYP71A10-transformed tobacco; set-up: species or system Nicotiana tabacum cv SR1; conditions: for % of herbicide metabolized, CYP71A10-transformed: after 14 hours, 1.2 nmol herbicide, standard error in parentheses, four 25/2 plants; for share of the chlortoluron metabolites recovered from CYP71A10-transformed leaves: 14 hours, TLC
Procedure: as §2, §3

[4] = target: T1, soybean CYP71A10 (Glycine max, UniProt O48918); assay: In vitro herbicide metabolism assay and enzyme kinetics, microsomes of yeast expressing CYP71A10; type: biochemical; conditions: for metabolites formed from the radiolabeled herbicide (TLC): 45 minutes at 27° C., 0.75 mM NADPH, 2.5 mg/ml microsomal protein
T1 construct: microsomes of yeast W(R) overexpressing endogenous P450 reductase
T1 sequence (O48918 1-513): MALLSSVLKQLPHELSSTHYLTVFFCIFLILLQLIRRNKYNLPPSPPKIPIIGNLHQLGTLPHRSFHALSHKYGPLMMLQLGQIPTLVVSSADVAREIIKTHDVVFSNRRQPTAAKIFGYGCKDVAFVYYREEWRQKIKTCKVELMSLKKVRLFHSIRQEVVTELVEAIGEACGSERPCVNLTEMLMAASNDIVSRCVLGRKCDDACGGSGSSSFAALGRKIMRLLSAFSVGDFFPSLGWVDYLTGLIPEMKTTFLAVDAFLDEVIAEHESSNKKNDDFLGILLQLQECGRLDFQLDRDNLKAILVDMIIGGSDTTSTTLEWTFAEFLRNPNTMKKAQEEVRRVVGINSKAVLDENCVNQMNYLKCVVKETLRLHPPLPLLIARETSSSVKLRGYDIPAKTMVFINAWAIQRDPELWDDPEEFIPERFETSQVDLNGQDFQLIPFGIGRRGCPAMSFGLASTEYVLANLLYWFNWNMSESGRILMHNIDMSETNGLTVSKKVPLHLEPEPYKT
T1 sequence (P16603 1-691 partner): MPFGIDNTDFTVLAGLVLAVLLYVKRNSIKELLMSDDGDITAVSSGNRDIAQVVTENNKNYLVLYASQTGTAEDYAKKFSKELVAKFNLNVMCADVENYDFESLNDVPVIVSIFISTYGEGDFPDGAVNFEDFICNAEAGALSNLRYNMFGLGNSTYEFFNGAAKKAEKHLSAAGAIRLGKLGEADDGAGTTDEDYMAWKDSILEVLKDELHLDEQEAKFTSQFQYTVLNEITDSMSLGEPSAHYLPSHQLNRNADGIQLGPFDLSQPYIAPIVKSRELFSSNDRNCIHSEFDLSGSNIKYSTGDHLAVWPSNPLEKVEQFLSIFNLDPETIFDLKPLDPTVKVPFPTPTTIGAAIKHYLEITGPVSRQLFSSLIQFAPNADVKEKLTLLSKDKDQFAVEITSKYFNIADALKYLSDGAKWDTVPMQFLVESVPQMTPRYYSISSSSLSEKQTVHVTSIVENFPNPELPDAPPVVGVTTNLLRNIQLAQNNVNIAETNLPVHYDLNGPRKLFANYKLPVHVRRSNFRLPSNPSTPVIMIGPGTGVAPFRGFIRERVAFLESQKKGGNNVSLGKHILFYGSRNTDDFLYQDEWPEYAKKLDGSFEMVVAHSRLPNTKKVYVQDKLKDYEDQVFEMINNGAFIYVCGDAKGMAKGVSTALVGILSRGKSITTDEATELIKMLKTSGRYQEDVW
Procedure: Yeast transformation was performed as described by Geitz et al., Nucleic Acids Research 20:1425 (1992). Media composition, culturing conditions, galactose induction, and microsomal preparations were conducted according to Pompon et al., Methods Enzymol. 272:51-64 (1995), using a culture volume of 250 ml. Microsomal protein was quantified spectrophotometrically using the method of Waddell, J. Lab. Clin. Med. 48:311-314 (1956), using bovine albumin as a standard. Dithionite-reduced, carbon monoxide difference spectra was obtained as previously outlined (Estabrook and Werringloer, Methods Ennzmol. 52:212-220 (1978)) using a Shimadzu Recording Spectrophotometer UV-240 (Shimadzu, Kyoto, Japan). P-450 protein concentrations of yeast microsomes were calculated using a millimolar extinction coefficient of 91 (Omura and Sato, J. Biol. Chem., 239:2370-2378 (1964)).
Yeast microsomes enriched for a discrete soybean P-450 isozyme were assayed for their capacity to metabolize the ten herbicides and one insecticide listed in Table 3. The reaction mixtures contained 10,000 DPM (100-200 ng) radiolabeled substrate, 0.75 mM NAPDH, 2.5 mg/ml microsomal protein. Total reaction volumes were adjusted to 150 μl with 50 mM phosphate buffer (pH 7.1). The mixtures were incubated under light for 45 minutes at 27° C., arrested with 50 μl acetone and centriftiged at 14 000×g for 2 minutes. […] Radiolabeled bentazon and imazaquin-containing samples were spotted onto 200 micron Whatman LKC18F silica gel reversed-phase plates. All plates were developed in a benzene/acetone 2:1 (v/v) solvent system with the exception of prosulfaron, developed in toluene/acetone/acetic acid, 75:20:5 (v/v/v), and bentazon and imazaquin, developed in methanol/75 mM sodium acetate 40:60 (v/v). The developed plates were scanned with a Bioscan System 400 imaging scanner (Bioscan, Washington, D.C.), and the production of metabolites was determined based on the chromatographic profiles. For microsomes containing the expressed CYP71A10 enzyme, control experiments were also conducted to measure the NADPH-dependency, and the inhibitory effects of CO. CO treatment of the sample was achieved by gentle bubbling of the gas through the reaction mixture for 2 minutes immediately before the assay was initiated by the addition of NADPH.
Substrate conversion was quantified by a combination of TLC analysis and scintillation spectrometry. The location of the metabolic products on the TLC plates was identified using an imaging scanner, the bands were scraped and analyzed by scintillation spectrometry. The amount of metabolite produced was calculated based on specific activity and scintillation counts. Each assay was repeated at least twice. Km and Vmax values were estimated using nonlinear regression analysis.

[5] = system: wild-type SR1 plants and pBI121-transformed control tobacco plants; assay: Herbicide tolerance, seeds germinated on herbicide medium, control tobacco; type: in vivo, Nicotiana tabacum cv SR1; conditions: data not shown
Procedure: as §1

[6] = system: Hill-reaction; conditions: cited from earlier work
[7] = substrate: CN(C)C(=O)Nc1cccc(C(F)(F)F)c1; assay: In vitro herbicide metabolism assay and enzyme kinetics, microsomes of yeast expressing CYP71A10; type: biochemical, soybean (Glycine max); conditions: other: yeast microsomes containing CYP71A10; standard error in parentheses; nonlinear regression; pH 7.1; 27.0 °C
[8] = substrate: CON(C)C(=O)Nc1ccc(Cl)c(Cl)c1; assay: as above; type: biochemical, soybean (Glycine max); conditions: other: yeast microsomes containing CYP71A10; standard error in parentheses; nonlinear regression; pH 7.1; 27.0 °C
[9] = substrate: Cc1ccc(NC(=O)N(C)C)cc1Cl; assay: as above; type: biochemical, soybean (Glycine max); conditions: other: yeast microsomes containing CYP71A10; standard error in parentheses; nonlinear regression; pH 7.1; 27.0 °C
[10] = substrate: CN(C)C(=O)Nc1ccc(Cl)c(Cl)c1; assay: cells, lysate or membranes named; conditions: other: yeast microsomes containing CYP71A10; standard error in parentheses; nonlinear regression; pH 7.1; 27.0 °C
[11] = yeast microsomes containing CYP71A10, standard error in parentheses

CN(C)C(=O)Nc1cccc(C(F)(F)F)c1 [Fluometuron, fluometuron]
tolerance of line 25/2 to the herbicide [1]: little tolerance
% of herbicide metabolized, Control [2]: 15 (0.6) %
% of herbicide metabolized, CYP71A10-transformed [3]: 91 (4.5) %
metabolites formed from the radiolabeled herbicide (TLC) [4]: a single metabolite
Turnover [4, 11]: 6.8 (0.24) min^-1

Clc1ccc(N2N=NC3C4CC(C5N=NC45)C32)cc1 (centres unmarked) [tetcyclasis]
effect on linuron metabolizing activity [4]: completely abolished

CON(C)C(=O)Nc1ccc(Cl)c(Cl)c1 [Linuron, linuron]
germinated seedlings of plant 25/2 inhibited by the herbicide ([1]; 0.5 μM linuron in medium): one of 23
number of 20 other independent CYP71A10-expressing lines giving linuron tolerant progeny ([1]; 0.5 μM linuron in medium): 19 lines
linuron level to which tolerant 25/2 plants were observed ([1]; increasing percentage of plants inhibited with rising concentration): ≤ 2.5 µM
growth of wild-type SR1 and pBI121 control plants ([5]; 0.25 μM linuron (LOROX 50 DF) in medium): severely inhibited
growth of wild-type SR1 and pBI121 control plants ([5]; linuron 0.5 μM and higher in medium): completely arrested
% of herbicide metabolized, Control [2]: 12 (2.6) %
inhibition of the Hill-reaction relative to N-demethyl linuron [6]: 10 fold
% of herbicide metabolized, CYP71A10-transformed [3]: 87 (2.0) %
metabolites formed from the radiolabeled herbicide (TLC) [4]: two (a major and a minor) metabolites
linuron metabolizing activity with microsomes of yeast expressing only the V60 control plasmid ([4]; V-60 control microsomes, no CYP71A10): no activity is detected
linuron metabolites when NADPH is omitted from the reaction ([4]; no NADPH): no metabolites are observed
Turnover [4, 11]: 2.8 (0.27) min^-1

CN(C)C(=O)Nc1ccc(CO)c(Cl)c1 [ring-methyl hydroxy chlortoluron]
share of the chlortoluron metabolites recovered from CYP71A10-transformed leaves [3]: 47%

[C-]#[O+] [CO, carbon monoxide]
reduction of linuron metabolizing activity ([4]; linuron as substrate (3.2 μM), CO bubbled through reaction mixture for 2 minutes): approximately 37%

CN(C)C(=O)Nc1ccc(Cl)c(Cl)c1 [Diuron, diuron]
tolerance of line 25/2 to the herbicide [1]: little tolerance
% of herbicide metabolized, Control [2]: 20 (2.0) %
% of herbicide metabolized, CYP71A10-transformed [3]: 49 (7.0) %
metabolites formed from the radiolabeled herbicide (TLC) [4]: a single metabolite
Turnover [4, 11]: 0.4 (0.04) min^-1
Vmax [4, 11]: 16.8 (1.6) pmol min^-1 mg^-1 protein

CNC(=O)Nc1ccc(C)c(Cl)c1 [N-demethyl chlortoluron]
share of the chlortoluron metabolites produced in control leaves [2]: Sixty three
share of the chlortoluron metabolites produced in control leaves ([2]; listed as Ndemethyl chlortoluron): 63%
share of the chlortoluron metabolites recovered from CYP71A10-transformed leaves [3]: 8%

B1: soybean CYP71A10 (Glycine max) (protein)
chain: MALLSSVLKQLPHELSSTHYLTVFFCIFLILLQLIRRNKYNLPPSPPKIPIIGNLHQLGTLPHRSFHALSHKYGPLMMLQLGQIPTLVVSSADVAREIIKTHDVVFSNRRQPTAAKIFGYGCKDVAFVYYREEWRQKIKTCKVELMSLKKVRLFHSIRQEVVTELVEAIGEACGSERPCVNLTEMLMAASNDIVSRCVLGRKCDDACGGSGSSSFAALGRKIMRLLSAFSVGDFFPSLGWVDYLTGLIPEMKTTFLAVDAFLDEVIAEHESSNKKNDDFLGILLQLQECGRLDFQLDRDNLKAILVDMIIGGSDTTSTTLEWTFAEFLRNPNTMKKAQEEVRRVVGINSKAVLDENCVNQMNYLKCVVKETLRLHPPLPLLIARETSSSVKLRGYDIPAKTMVFINAWAIQRDPELWDDPEEFIPERFETSQVDLNGQDFQLIPFGIGRRGCPAMSFGLASTEYVLANLLYWFNWNMSESGRILMHNIDMSETNGLTVSKKVPLHLEPEPYKT
notes: microsomes of yeast W(R) overexpressing endogenous P450 reductase
Km [7]: 14.9 µM
Km [8]: 9.8 µM
Vmax [8]: 125.6 (12.0) pmol min^-1 mg^-1 protein
Km [9]: 1 µM
Vmax [9]: 29.4 (2.2) pmol min^-1 mg^-1 protein
Km [10]: 1.5 µM
